Assay results as given in ChEMBL document CHEMBL3112510, “Optimization, pharmacophore modeling and 3D-QSAR studies of sipholanes as breast cancer migration and proliferation inhibitors” (Eur J Med Chem, 2014).
The source made the active and inactive calls. The calls are words filed in the database; no cut-off is given here.

Legend:
[1] = system: MDA-MB-231; experiment: Antiproliferative activity against human MDA-MB-231 cells after 72 hrs by MTT assay; settings: MDA-MB-231, 72 h
[2] = system: MDA-MB-231; experiment: Antimigratory activity in human MDA-MB-231 cells after 24 hrs by wound healing assay; settings: MDA-MB-231, 24 h
[3] = system: MCF7; experiment: cells; settings: Homo sapiens, MCF7, 72 h
[4] = Cytotoxicity against human MCF10A cells at => IC50 of wound healing assay after 24 hrs by MTT assay; settings: mcf-10a
[5] = Cytotoxicity against human MCF10A cells at => IC50 of antiproliferative assay after 24 hrs by MTT assay; settings: mcf-10a
[6] = target: Protein-tyrosine kinase 6 (Homo sapiens) (UniProt Q13882); experiment: Inhibition of PTK6 phosphorylation in human MDA-MB-231 cells at 20 uM after 72 hrs by Western blot analysis; format: cell-based
Sequence of Protein-tyrosine kinase 6 (Homo sapiens) (Q13882 whole entry, looked up): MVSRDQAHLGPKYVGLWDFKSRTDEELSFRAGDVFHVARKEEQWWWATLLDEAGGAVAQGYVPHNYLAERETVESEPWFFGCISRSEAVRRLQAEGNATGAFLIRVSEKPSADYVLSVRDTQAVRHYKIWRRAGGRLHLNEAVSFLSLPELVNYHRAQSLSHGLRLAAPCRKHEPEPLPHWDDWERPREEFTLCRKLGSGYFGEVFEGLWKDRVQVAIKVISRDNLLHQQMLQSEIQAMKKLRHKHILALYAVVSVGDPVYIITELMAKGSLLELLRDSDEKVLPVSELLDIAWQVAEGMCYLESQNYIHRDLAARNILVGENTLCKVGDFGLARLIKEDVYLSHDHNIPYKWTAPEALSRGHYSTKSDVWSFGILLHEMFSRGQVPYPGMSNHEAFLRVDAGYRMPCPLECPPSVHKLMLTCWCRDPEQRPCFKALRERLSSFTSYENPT

| IC50 [1] | IC50 [2] | IC50 ([2]; read-out: pIC50 (converted)) | IC50 [3] | inhibition [6] | Compound | Activity [4] | Activity [5] |
| --- | --- | --- | --- | --- | --- | --- | --- |
| 28.7 µM | 22.7 µM | 22.7 µM | 11.3 µM | – | CC1=CC[C@H]2[C@H](CC[C@]2(C)O)C(C)(C)[C@@H]1CC[C@H]1[C@]2(C)CC[C@H](OC(=O)c3ccccc3F)C(C)(C)O[C@H]2CC[C@@]1(C)O | Non-toxic | Non-toxic |
| 24.3 µM | 6.1 µM | – | 12.1 µM | – | CC1=CC[C@H]2[C@H](CC[C@]2(C)O)C(C)(C)[C@@H]1CC[C@H]1[C@]2(C)CC[C@H](OC(=O)c3ccccc3Cl)C(C)(C)O[C@H]2CC[C@@]1(C)O | Non-toxic | Non-toxic |
| 14 µM | 9.3 µM | 9.29 µM | 25.7 µM | – | CC1=CC[C@H]2[C@H](CC[C@]2(C)O)C(C)(C)[C@@H]1CC[C@H]1[C@]2(C)CC[C@H](OC(=O)c3ccco3)C(C)(C)O[C@H]2CC[C@@]1(C)O | Non-toxic | Non-toxic |
| 16.1 µM | 7.9 µM | 7.91 µM | 21 µM | Active | CC1=CC[C@H]2[C@H](CC[C@]2(C)O)C(C)(C)[C@@H]1CC[C@H]1[C@]2(C)CC[C@H](OC(=O)c3ccccc3)C(C)(C)O[C@H]2CC[C@@]1(C)O | – | – |
| > 50 µM | 35.3 µM | 35.3 µM | > 50 µM | – | CC1=CC[C@H]2[C@@H]1CC=C(C)[C@@H](CC[C@H]1[C@]3(C)CC[C@H](O)C(C)(C)O[C@H]3CC[C@@]1(C)O)C2(C)C | – | – |
| 38 µM | 16.8 µM | – | 47.9 µM | – | CC(=O)O[C@H]1CC[C@]2(C)[C@H](CC[C@@](C)(O)[C@H]2CC[C@@H]2C(C)=CC[C@H]3[C@H](CC[C@]3(C)O)C2(C)C)OC1(C)C | – | – |
| > 50 µM | > 50 µM | 51.2 µM | > 50 µM | – | CC1(C)O[C@H]2CC[C@@](C)(O)[C@@H](CC[C@@H]3C(C=O)=CC[C@H]4[C@H](CC[C@]4(C)O)C3(C)C)[C@]2(C)CC[C@@H]1O | – | – |
| 11.1 µM | 3.5 µM | 3.48 µM | 21.3 µM | – | CC1=CC[C@H]2[C@H](CC[C@]2(C)O)C(C)(C)[C@@H]1CC[C@H]1[C@]2(C)CC[C@H](OC(=O)c3ccc([N+](=O)[O-])o3)C(C)(C)O[C@H]2CC[C@@]1(C)O | Non-toxic | Non-toxic |
| > 50 µM | 42 µM | 42 µM | > 50 µM | – | CC1=CC[C@H]2[C@@H]([C@@H]1CC[C@H]1[C@]3(C)CC[C@H](O)C(C)(C)O[C@H]3CC[C@@]1(C)O)C(C)(C)CC[C@]2(C)O | – | – |
| 11.3 µM | 2.4 µM | 2.4 µM | 33.5 µM | – | CC1=CC[C@H]2[C@H](CC[C@]2(C)O)C(C)(C)[C@@H]1CC[C@H]1[C@]2(C)CC[C@H](OC(=O)c3ccc(F)cc3)C(C)(C)O[C@H]2CC[C@@]1(C)O | Non-toxic | Non-toxic |

The remaining lines, values behind:

| Compound | IC50 [1] | IC50 [2] | IC50 ([2]; read-out: pIC50 (converted)) | IC50 [3] | inhibition [6] | Activity [4] | Activity [5] |
| --- | --- | --- | --- | --- | --- | --- | --- |
| CC1=CC[C@H]2[C@H](CC[C@]2(C)O)C(C)(C)[C@@H]1CC[C@H]1[C@]2(C)CC[C@H](OC(=O)c3ccc(C(F)(F)F)cc3F)C(C)(C)O[C@H]2CC[C@@]1(C)O | 36.3 µM | 26.4 µM | 26.4 µM | > 50 µM | – | Non-toxic | Non-toxic |
| CC1=CC[C@H]2[C@H](CC[C@]2(C)O)C(C)(C)[C@@H]1CC[C@H]1[C@]2(C)CC[C@H](OC(=O)c3ccc(C(F)(F)F)c(F)c3)C(C)(C)O[C@H]2CC[C@@]1(C)O | 22.2 µM | 11.9 µM | 11.9 µM | > 50 µM | – | Non-toxic | Non-toxic |
| CC1=CC[C@H]2[C@H](CC[C@]2(C)O)C(C)(C)[C@@H]1CC[C@H]1[C@]2(C)CC[C@H](OC(=O)c3ccc(C(F)(F)F)cc3)C(C)(C)O[C@H]2CC[C@@]1(C)O | 19.5 µM | 7.8 µM | 7.8 µM | 23.4 µM | – | Non-toxic | Non-toxic |
| CC1=CC[C@H]2[C@H](CC[C@]2(C)O)C(C)(C)[C@@H]1CC[C@H]1[C@]2(C)CC[C@H](OC(=O)c3ccccc3C(F)(F)F)C(C)(C)O[C@H]2CC[C@@]1(C)O | 31.5 µM | 34.5 µM | 34.5 µM | 19.2 µM | – | Non-toxic | Non-toxic |
| CC1=CC[C@H]2[C@H](CC[C@]2(C)O)C(C)(C)[C@@H]1CC[C@H]1[C@]2(C)CC[C@H](OC(=O)c3ccccc3[N+](=O)[O-])C(C)(C)O[C@H]2CC[C@@]1(C)O | 38.7 µM | 18.6 µM | 18.6 µM | 5.2 µM | – | Non-toxic | Non-toxic |
| CC1=CC[C@H]2[C@H](CC[C@]2(C)O)C(C)(C)[C@@H]1CC[C@H]1[C@]2(C)CC[C@H](OC(=O)c3ccc(Cl)c(Cl)c3)C(C)(C)O[C@H]2CC[C@@]1(C)O | 8.1 µM | 1.3 µM | 1.3 µM | 11.9 µM | – | Non-toxic | Non-toxic |
| CC1=CC[C@H]2[C@H](CC[C@]2(C)O)C(C)(C)[C@@H]1CC[C@H]1[C@]2(C)CC[C@H](OC(=O)c3ccc([N+](=O)[O-])cc3)C(C)(C)O[C@H]2CC[C@@]1(C)O | 8.9 µM | 3.4 µM | 3.35 µM | 21.6 µM | – | Non-toxic | Non-toxic |
| CC1=CC[C@H]2[C@H](CC[C@]2(C)O)C(C)(C)[C@@H]1CC[C@H]1[C@]2(C)CC[C@H](OC(=O)c3cccc([N+](=O)[O-])c3)C(C)(C)O[C@H]2CC[C@@]1(C)O | 34.7 µM | 5.9 µM | 5.9 µM | 36 µM | – | Non-toxic | Non-toxic |
| CC1=CC[C@H]2[C@H](CC[C@]2(C)O)C(C)(C)[C@@H]1CC[C@H]1[C@]2(C)CC[C@H](OC(=O)c3cccc(C(F)(F)F)c3)C(C)(C)O[C@H]2CC[C@@]1(C)O | 36.3 µM | 6.1 µM | 6.1 µM | 37.9 µM | – | Non-toxic | Non-toxic |
| COc1ccc(C(=O)O[C@H]2CC[C@]3(C)[C@H](CC[C@@](C)(O)[C@H]3CC[C@@H]3C(C)=CC[C@H]4[C@H](CC[C@]4(C)O)C3(C)C)OC2(C)C)cc1 | 30.6 µM | 17.9 µM | 17.9 µM | 41.7 µM | – | Non-toxic | Non-toxic |
| CC1=CC[C@H]2[C@H](CC[C@]2(C)O)C(C)(C)[C@@H]1CC[C@H]1[C@]2(C)CC/C(=N/OCc3ccccc3)C(C)(C)O[C@H]2CC[C@@]1(C)O | 38.2 µM | 31.4 µM | 31.4 µM | > 50 µM | – | – | – |
| CC1=CC[C@H]2[C@H](CC[C@]2(C)O)C(C)(C)[C@@H]1CC[C@H]1[C@]2(C)CC[C@H](OC(=O)NS(=O)(=O)c3ccc(C)cc3)C(C)(C)O[C@H]2CC[C@@]1(C)O | 47.1 µM | 18 µM | – | > 50 µM | – | – | – |
